The source made the active and inactive calls.
Key:
[1] = target: Epidermal growth factor receptor (Homo sapiens) (UniProt P00533); experiment: Inhibition of EGFR (unknown origin) at 1 uM
[2] = target: Ephrin type-A receptor 8 (Homo sapiens) (UniProt P29322); experiment: Inhibition of EPHA8 (unknown origin) at 1 uM
[3] = target: SRSF protein kinase 1 (Homo sapiens) (UniProt Q96SB4); experiment: Inhibition of SRPK1 (unknown origin) at 1 uM
[4] = target: MAP kinase-interacting serine/threonine-protein kinase 2 (Homo sapiens) (UniProt Q9HBH9); experiment: Inhibition of MNK2 (unknown origin) at 1 uM
[5] = target: Mitogen-activated protein kinase kinase kinase kinase 5 (Homo sapiens) (UniProt Q9Y4K4); experiment: Inhibition of KHS (unknown origin) at 1 uM
[6] = target: Lymphokine-activated killer T-cell-originated protein kinase (Homo sapiens) (UniProt Q96KB5); experiment: Inhibition of PBK (unknown origin) at 1 uM
[7] = target: Serine/threonine-protein kinase TBK1 (Homo sapiens) (UniProt Q9UHD2); experiment: Inhibition of TBK1 (unknown origin) at 1 uM
[8] = target: Ephrin type-A receptor 3 (Homo sapiens) (UniProt P29320); experiment: Inhibition of EPHA3 (unknown origin) at 1 uM
[9] = target: Ephrin type-A receptor 2 (Homo sapiens) (UniProt P29317); experiment: Inhibition of EPHA2 (unknown origin) at 1 uM
[10] = target: Serine/threonine-protein kinase Chk1 (Homo sapiens) (UniProt O14757); experiment: Inhibition of CHK1 (unknown origin) at 1 uM
[11] = target: Mitogen-activated protein kinase kinase kinase 6 (Homo sapiens) (UniProt O95382); experiment: Inhibition of MEKK6 (unknown origin) at 1 uM

Measured: inhibition

Sequence of Serine/threonine-protein kinase TBK1 (Homo sapiens) (Q9UHD2 whole entry): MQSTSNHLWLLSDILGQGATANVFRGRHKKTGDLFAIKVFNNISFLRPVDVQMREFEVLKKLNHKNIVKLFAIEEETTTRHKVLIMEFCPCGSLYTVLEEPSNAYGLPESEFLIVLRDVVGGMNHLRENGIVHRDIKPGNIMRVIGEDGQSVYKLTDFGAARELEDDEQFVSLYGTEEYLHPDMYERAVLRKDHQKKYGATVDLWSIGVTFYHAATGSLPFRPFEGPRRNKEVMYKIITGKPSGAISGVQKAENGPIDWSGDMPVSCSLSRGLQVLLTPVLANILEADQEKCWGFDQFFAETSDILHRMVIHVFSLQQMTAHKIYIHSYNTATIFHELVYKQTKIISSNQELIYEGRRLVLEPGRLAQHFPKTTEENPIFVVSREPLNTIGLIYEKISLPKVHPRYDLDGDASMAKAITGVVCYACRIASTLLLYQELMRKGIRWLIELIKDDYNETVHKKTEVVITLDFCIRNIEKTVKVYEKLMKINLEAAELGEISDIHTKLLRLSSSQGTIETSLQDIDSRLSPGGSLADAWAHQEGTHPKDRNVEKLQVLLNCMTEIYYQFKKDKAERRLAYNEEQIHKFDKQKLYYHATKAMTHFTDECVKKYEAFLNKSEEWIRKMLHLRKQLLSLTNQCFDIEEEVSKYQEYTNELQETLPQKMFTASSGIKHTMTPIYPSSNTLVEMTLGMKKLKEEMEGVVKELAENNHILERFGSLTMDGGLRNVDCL
Sequence of Serine/threonine-protein kinase Chk1 (Homo sapiens) (O14757 whole entry): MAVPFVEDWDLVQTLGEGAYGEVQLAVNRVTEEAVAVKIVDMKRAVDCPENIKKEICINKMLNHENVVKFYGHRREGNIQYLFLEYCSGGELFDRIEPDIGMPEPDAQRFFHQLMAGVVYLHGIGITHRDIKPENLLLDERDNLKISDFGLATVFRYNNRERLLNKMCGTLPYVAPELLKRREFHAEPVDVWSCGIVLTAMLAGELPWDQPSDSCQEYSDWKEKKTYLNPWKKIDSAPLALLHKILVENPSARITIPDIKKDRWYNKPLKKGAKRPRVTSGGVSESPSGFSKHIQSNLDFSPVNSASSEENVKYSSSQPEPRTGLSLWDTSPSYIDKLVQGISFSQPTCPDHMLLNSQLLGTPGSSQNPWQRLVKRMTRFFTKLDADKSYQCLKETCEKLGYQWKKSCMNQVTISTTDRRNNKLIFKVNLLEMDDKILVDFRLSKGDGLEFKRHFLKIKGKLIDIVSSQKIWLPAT
Sequence of Mitogen-activated protein kinase kinase kinase 6 (Homo sapiens) (O95382 whole entry): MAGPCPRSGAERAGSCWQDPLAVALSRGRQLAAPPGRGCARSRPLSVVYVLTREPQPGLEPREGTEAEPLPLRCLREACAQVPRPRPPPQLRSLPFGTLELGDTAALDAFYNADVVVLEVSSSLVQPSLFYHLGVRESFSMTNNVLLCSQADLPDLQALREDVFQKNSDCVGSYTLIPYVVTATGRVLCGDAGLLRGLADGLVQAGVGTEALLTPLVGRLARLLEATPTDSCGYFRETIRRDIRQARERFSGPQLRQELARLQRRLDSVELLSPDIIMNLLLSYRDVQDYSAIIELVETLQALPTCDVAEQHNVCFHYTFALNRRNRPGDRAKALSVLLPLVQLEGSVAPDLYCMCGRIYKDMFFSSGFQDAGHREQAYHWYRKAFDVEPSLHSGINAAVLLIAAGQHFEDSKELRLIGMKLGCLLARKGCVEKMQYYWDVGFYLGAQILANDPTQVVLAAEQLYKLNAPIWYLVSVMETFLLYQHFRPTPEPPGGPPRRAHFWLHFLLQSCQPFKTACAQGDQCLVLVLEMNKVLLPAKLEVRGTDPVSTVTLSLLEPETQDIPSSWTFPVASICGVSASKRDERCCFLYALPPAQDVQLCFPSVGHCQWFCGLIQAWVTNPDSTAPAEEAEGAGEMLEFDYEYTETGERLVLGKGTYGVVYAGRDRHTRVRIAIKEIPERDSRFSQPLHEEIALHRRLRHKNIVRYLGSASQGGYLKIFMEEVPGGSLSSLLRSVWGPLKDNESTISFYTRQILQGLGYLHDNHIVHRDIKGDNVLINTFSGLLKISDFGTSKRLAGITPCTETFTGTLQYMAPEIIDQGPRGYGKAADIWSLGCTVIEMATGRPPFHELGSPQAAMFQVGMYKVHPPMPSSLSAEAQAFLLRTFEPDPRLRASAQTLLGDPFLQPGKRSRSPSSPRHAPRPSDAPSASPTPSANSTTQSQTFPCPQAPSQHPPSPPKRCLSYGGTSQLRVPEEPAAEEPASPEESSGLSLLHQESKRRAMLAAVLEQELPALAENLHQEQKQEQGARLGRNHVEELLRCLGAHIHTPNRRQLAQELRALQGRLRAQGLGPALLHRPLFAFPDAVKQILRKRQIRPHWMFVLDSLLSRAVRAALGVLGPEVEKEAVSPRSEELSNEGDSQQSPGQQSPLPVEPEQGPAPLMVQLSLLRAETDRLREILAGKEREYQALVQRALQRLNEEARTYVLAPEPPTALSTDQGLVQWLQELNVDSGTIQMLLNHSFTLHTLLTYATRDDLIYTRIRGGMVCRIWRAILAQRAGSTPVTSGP
Sequence of SRSF protein kinase 1 (Homo sapiens) (Q96SB4 whole entry): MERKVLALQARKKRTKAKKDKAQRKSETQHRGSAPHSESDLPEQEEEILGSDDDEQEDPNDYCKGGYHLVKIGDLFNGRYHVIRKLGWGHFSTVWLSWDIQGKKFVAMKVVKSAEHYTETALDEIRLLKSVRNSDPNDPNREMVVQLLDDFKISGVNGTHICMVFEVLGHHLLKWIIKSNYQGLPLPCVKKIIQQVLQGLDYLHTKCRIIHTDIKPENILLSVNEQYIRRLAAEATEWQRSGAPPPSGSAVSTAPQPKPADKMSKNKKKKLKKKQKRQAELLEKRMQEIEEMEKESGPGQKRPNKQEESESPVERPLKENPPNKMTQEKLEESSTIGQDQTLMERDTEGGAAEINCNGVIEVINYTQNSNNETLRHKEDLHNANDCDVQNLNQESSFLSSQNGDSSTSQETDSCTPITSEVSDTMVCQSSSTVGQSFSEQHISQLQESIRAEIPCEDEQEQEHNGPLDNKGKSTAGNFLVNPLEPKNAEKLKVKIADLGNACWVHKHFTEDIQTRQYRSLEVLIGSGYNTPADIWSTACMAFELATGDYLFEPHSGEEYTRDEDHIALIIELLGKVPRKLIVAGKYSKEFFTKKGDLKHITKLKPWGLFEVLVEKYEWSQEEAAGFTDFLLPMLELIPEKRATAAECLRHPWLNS
Sequence of Ephrin type-A receptor 3 (Homo sapiens) (P29320 whole entry): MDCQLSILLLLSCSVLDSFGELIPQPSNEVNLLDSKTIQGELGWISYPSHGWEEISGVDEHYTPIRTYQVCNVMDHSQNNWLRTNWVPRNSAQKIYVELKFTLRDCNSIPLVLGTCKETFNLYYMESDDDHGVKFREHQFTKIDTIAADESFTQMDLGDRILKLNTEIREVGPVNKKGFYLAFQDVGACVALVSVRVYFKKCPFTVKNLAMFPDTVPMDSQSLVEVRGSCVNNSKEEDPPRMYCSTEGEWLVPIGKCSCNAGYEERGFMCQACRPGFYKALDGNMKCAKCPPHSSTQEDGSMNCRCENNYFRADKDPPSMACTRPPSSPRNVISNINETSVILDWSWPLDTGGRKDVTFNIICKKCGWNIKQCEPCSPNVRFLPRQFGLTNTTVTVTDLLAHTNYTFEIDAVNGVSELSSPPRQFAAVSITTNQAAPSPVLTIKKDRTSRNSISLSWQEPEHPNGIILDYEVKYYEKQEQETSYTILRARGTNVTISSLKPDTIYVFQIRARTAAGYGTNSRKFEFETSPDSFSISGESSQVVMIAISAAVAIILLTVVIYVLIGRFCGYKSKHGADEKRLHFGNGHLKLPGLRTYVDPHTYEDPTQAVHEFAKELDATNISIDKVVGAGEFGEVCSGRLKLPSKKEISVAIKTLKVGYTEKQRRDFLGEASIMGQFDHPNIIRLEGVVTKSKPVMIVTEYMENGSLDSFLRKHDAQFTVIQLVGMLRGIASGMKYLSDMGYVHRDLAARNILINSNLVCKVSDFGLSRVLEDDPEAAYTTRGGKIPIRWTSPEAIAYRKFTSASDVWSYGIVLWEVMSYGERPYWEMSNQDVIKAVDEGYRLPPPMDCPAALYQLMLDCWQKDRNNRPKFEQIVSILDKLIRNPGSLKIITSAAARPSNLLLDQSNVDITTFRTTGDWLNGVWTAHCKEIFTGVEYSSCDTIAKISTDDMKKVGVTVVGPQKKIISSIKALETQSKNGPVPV
Sequence of Mitogen-activated protein kinase kinase kinase kinase 5 (Homo sapiens) (Q9Y4K4 whole entry, looked up): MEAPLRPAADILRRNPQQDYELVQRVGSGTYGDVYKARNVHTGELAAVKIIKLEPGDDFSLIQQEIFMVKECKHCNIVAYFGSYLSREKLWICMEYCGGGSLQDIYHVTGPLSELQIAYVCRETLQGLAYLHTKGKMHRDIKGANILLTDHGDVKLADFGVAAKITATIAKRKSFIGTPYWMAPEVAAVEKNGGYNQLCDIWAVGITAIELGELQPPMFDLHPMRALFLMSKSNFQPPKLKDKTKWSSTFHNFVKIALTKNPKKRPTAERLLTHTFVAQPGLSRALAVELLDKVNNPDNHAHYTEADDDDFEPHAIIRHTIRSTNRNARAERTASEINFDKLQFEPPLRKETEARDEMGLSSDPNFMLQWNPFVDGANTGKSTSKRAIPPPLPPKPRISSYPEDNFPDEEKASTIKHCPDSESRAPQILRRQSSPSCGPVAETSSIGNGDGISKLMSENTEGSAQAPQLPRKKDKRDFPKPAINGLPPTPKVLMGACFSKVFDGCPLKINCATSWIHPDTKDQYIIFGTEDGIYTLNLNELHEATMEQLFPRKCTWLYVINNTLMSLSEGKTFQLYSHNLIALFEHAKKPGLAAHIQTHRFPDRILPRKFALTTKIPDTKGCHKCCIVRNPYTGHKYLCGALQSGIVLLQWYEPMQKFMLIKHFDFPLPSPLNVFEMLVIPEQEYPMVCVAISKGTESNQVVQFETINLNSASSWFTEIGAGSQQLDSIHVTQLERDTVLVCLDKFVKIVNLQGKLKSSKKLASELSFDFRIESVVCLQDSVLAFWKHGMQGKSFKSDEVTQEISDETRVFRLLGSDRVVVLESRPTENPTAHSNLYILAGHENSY

OCCOCc1cn(CCNc2nonc2/C(=N/O)Nc2ccc(F)c(Br)c2)nn1
inactive: all assays above

Reference: ChEMBL document CHEMBL5055685, “Discovery of the First Potent IDO1/IDO2 Dual Inhibitors: A Promising Strategy for Cancer Immunotherapy” (J Med Chem, 2021)
